The source of these data is patent US7250157B2, “Dermatological compositions and methods” (Applied Genetics Incorporated Dermatics, priority 1996, dated 2007).

Structures are written as SMILES. Where “and” joins values, the source holds several entries; their conditions need not be identical. Equal entries are not always repeated.

The subject of series [1] is tyrosinase activity in S91 mouse melanoma cells. The series is described as follows: Induction of tyrosinase activity in S91 cells. The conditions noted are these: 300 mM PG-1,2; 25 mM 3,3-M-1,2-BD; 50 mM 1,2-cs-CPD; 5 mM 5-NBene-2,2-DM; 0.5 mM 2,3-Pyd; 0.1 mM IBMX; mean ±SE.
The test system of series [2] is Tyrosinase in normal human epidermal melanocytes (NHEM). As to the kind of experiment: Tyrosinase in NHEM (in situ, cellular, extracellular particulate, media). In kind it is cell-based. The method, then: Tyrosinase was measured in normal human epidermal melanocytes (NHEM) using procedures identical to those described for S91 cells (Example 6), […], 1600×g, or 17,300×g for analysis of tyrosinase activity in the extracellular exported melanosomal particulate fraction, and in the resultant supernatant media fraction. In some cases (Table 11), tyrosinase was also measured by an in situ assay wherein radiolabelled tyrosine was added directly to freshly replaced media of NHEM for a period of 24 hrs following a 5 day treatment period (Abdel-Malek, et al., 1992, J. Cell. Physiol. 150:416-425). […] Both 5 mM 5-NBene-2,2-DM and 25 mM 3,3-M-1,2-BD induced more tyrosinase in each of these assays and fractions than did 1,2-PG. IBMX (3-isobutyl-1-methyl-xanthine) provided as a positive control, induced as much tyrosinase as 5 mM 5-NBene-2,2-DM in the in situ assay, but less in cellular, extracellular particulate and media fractions (Table 11).

Series [3] deals with Normal human epidermal melanocytes (NHEMs). The series is described as follows: Melanin induction in normal human epidermal melanocytes. In kind it is cell-based. The method, then: Normal human epidermal melanocytes (NHEMs) were examined for induction of melanogenesis using cells and media from Clonetics Corporation (San Diego, Calif.). Cells were cultured exactly as specified by the supplier.

The subject of series [4] is Cloudman S91 mouse melanoma cell line. The series is described as follows: Cell count (proliferation, toxicity) of treated S91 cells. In kind it is cell-based. As to conditions: concentrations that induce much higher levels of tyrosinase. How it is done: The Cloudman S91 mouse melanoma cell line was obtained from American Type Culture Collection (ATCC). Cells were cultured in Dulbecco's Modified Eagles Medium (DMEM) containing 10% calf serum, 2 mM L-glutamine, 10 U Penicillin/ml and 10 ug Streptomycin/ml according to a previously published protocol (Eller, et al., Proc. Natl. Acad. Sci. 93:1087-92. 1996). For testing propylene glycol and analogues for induction of melanogenesis, S91 cells were plated at 10^5 cells/35 mm dish in 10% calf serum. One day after plating, media was removed and replaced with media containing 2% calf serum and test compounds (Eller, et al., 1996). Cells were cultured for 6 days at 37° C. in 5% CO2 in a humidified incubator. Following this treatment period, cells were examined microscopically and the portion of dedifferentiated and differentiated cells was estimated. Previous studies have shown that dedifferentiated S91 cells have a rounded, spindly appearance while differentiated S91 cells have a flattened, cuboidal, multipolar and dendritic appearance (Orlow, et al., Exp. Cell Res. 191:209-218, 1990).
Following this microscopic examination, cells were detached from dishes by trypsin. The time required for detachment by trypsin was recorded as an additional indicator of the phenotypic effects of test compounds. For each treatment, a subsample of cells was counted to determine the effects of treatment compounds on cellular proliferation. The remainder of cells were used for determination of melanin content. Melanin was extracted from cells by vortexing for 15 min in 1N NaOH. Standards were prepared by dissolving melanin (Sigma) in 1 N NaOH (Eller, et al., 1996). Absorbance of standards and samples was measured at 475 nm. Melanin was expressed as pg melanin/cell.

The subject of series [5] is American short-haired guinea pigs. The series is described as follows: Topical melanogenesis (pigmentation rating) in guinea pigs. In kind it is in vivo, guinea pig. More on the design: Pigmentation Rating / Pigmentation Rating Background Corrected: scale not given here. The method, then: Compounds were tested for melanogenic activity in vivo by application to American short-haired guinea pigs. Treatment sites were created by removal of fur using Nair® brand depilatory. In the Table, the numbers presented are the relative melanogenesis rating (mean ±SE), and are arranged according to the relative location on the animal, with the head being to the left and the tail being to the right. Propylene glycol (PG=13.6M), 2,3-butanediol (2,3-BD=10.95M), and 1,2-cis-cyclopentanediol (1,2-cs-CPD=10.7M) were applied as full strength solutions. 3,3-dimethyl-1,2-butanediol (3,3-M-1,2-BD) was applied as a 4M solution dissolved in ethanol. Two weeks following cessation of treatments, the degree of pigmentation was subjectively rated according to the following scale:
In order to minimize the effects of dimunition of response from head to tails of animals, all future experiments were done using only treatment spots located towards the tails of animals (c and d in Table 7). Deemed as additionally beneficial, in this area of the animal differences of responsiveness to strong and weak inducers of pigmentation, as deduced from cell culture, were greatest. […] Pigmentation ratings were corrected for background (control treatment spots), normalized to 1M to account for the different amounts of each agent applied, and then normalized to results for 1,2-PG (Table 8). […] It is anticipated that further improvements in formulation will additionally improve responsiveness to 5-NBene-2,2-DM and other compounds in this invention.
In FIG. 5, a, b, c and d indicate treatment spots that transverse the anterior-posterior axis along the backs of guinea pigs.

For series [6], the system named is Cloudman S91 mouse melanoma cell line. As to the kind of experiment: Melanin content of S91 cells after treatment with test compound. The series is classed as cell-based. The essentials:
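Mouse S91 melanoma cells seeded at 10^5 cells/35 mm dish in 10% calf serum and cultured with test compound 6 days at 37 °C, 5% CO2. Differentiation scored microscopically, trypsin detachment time recorded, cells counted; melanin measured by absorbance at 475 nm and expressed as pg melanin/cell.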

Setting [7] is: 5 day treatment, concentrations as E130.
[8] abbreviates: pair of replicates, concentrations as E130.
Setting [9] is: No Penetration Enhancer, concentrations as E85.

As to `CC(C)(C)C(O)CO` (stereo not drawn) [3,3-M-1,2-BD, 3,3-dimethyl-1,2-butanediol], in series [1], the “Tyrosinase dpm/hr 10^3 Cells” value is listed as 1211 ± 38 dpm/hr/10^3 Cells and the “Tyrosinase dpm/hr ug Protein” value was found to be 1746 ± 220 dpm/hr/ug Protein. In addition, in series [2] (5 day treatment, 300 mM 1,2-PG, 25 mM 3,3-M-1,2-BD, 5 mM 5-NBene-2,2-DM, 0.1 mM IBMX), the “Tyrosinase In Situ” value is 20.5 dpm/hr/10^3 Cells and 21.0 dpm/hr/10^3 Cells. In series [2] (setting [7]), the “Tyrosinase 200 g Partic” value is 1646 dpm/hr/10^3 Cells and 2226 dpm/hr/10^3 Cells; the “Tyrosinase Cellular” value was 11728 dpm/hr/10^3 Cells and 11730 dpm/hr/10^3 Cells. Further, the “Tyrosinase 17300 g Partic” value in series [2] (Post 200 X g, 5 day treatment, concentrations as E130) is 536 dpm/hr/10^3 Cells and 425 dpm/hr/10^3 Cells. Besides, in series [2] (Post 17300 X g, 5 day treatment, concentrations as E130), the “Tyrosinase Media” value was 5495 dpm/hr/10^3 Cells and 3056 dpm/hr/10^3 Cells. In series [2] (setting [8]), the “Tyrosinase 200 g Partic, relative to controls (in parentheses)” value is “(5.64X)”; the “Tyrosinase 17300 g Partic, relative to controls (in parentheses)” value is given as “(4.20X)”; the “Tyrosinase Cellular, relative to controls (in parentheses)” value is given as “(1.15X)”; the “Tyrosinase In Situ, relative to controls (in parentheses)” value is given as “(1.31X)”. The “Tyrosinase Media, relative to controls (in parentheses)” value in series [2] (setting [8]) is given as “(2.75X)”. In series [3], the “Concentration Required for ≧1.5-fold Melanin Induction in NHEMs” value is 12.5 mM. In series [4], the “toxicity to S91 cells” value is given as “nontoxic”. In addition, in series [5] (setting [9]), the “Pigmentation Rating Normalized to 1,2-PG” value was 18.1 ± 6.8 and the “Pigmentation Rating Normalized to 1M” value is listed as 0.272 ± 0.102. The “Pigmentation Rating Background Corrected” value in series [5] (No Penetration Enhancer, corrected for Nair control, concentrations as E85) came out at 1.09 ± 0.41. In series [5] (No Penetration Enhancer, sites c and d, 13.61M 1,2-PG, 11.0M 2,3-M-2,3-BD, 11.3M 2-M-1,3-PG, 8.7M 1,2-cs-CPD, 4.0M 3,3-M-1,2-BD), the “Pigmentation Rating” value is on record as 1.17 ± 0.44. In series [5] (guinea pig, 5 days), the “greater melanogenesis than PG applied at similar body locations” value was determined as 4.5 fold. Also, the “relative melanogenesis rating (mean ±SE), scale 0-4” value in series [5] (site c, 25 μl twice per day for 5 days, rated two weeks after, full strength, 3,3-M-1,2-BD 4M in ethanol) was 1.16 ± 0.66^2. For the same molecule, the “Concentration Required for ≧2-fold Melanin Induction in S91 Cells” value in series [6] came to 10 mM.
